Values of other authors in patent US5866682A (priority 1997, dated 1999).

Test system: α3β2 and α3β4 receptors

Substance: α-conotoxin MII
- binding sites and toxin molecules required to block function: has two binding sites on α3β2 and α3β4 receptors expressed in Xenopus oocytes and only one toxin molecule is required to block function
- block of native nAChRs: blocks native α3β2-containing nAChRs and α3β4 conataining nAChRs
- discrimination between the α3β2 and α3β4 interface: four orders-of-magnitude
